The record followed here is patent publication US11827628B2, “Compositions and methods for inhibition of the JAK pathway” (Rigel Pharmaceuticals, Inc., priority 2005, dated 2023).

Molecules are shown by their SMILES. Where two headings read alike, the source gives them in different places.

Test [1] deals with IL-4 stimulated expression of CD23 in human Ramos B cells (JAK-1 and JAK-3). In words: Assay for Ramos B-Cell Line Stimulated with IL-4 (CD23 upregulation, FACS). The format is cell-based. The conditions noted are these: Ramos B-cell line stimulated with IL-4, CD23 expression by FACS, read-out: IC50, Example 41. In outline: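 Compound effect on IL-4-driven JAK1/JAK3 signalling is gauged as CD23 surface expression, measured by FACS after 20-24 h of stimulation with IL-4 at 50 units/mL final. A 1 h compound pre-treatment at 37 °C precedes stimulation, and IC50 is derived from the results.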

Test [2] concerns up-regulation of ICAM-1 (CD54) by IFNγ in U937 human monocytic cells. The test can be described thus: U937 IFNγ ICAM1 FACS Assay. The format is cell-based. The note with it: U937 cells stimulated with IFNγ, ICAM-1 expression by FACS, read-out: IC50, Example 44. In a few lines:
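U937 cells in 10% FCS RPMI were preincubated 30 min at 37 °C with an 8-point, 3-fold compound dilution series in duplicate, then stimulated with IFNγ for 18–24 h. Surface ICAM-1 was stained with APC anti-ICAM-1 and read by flow cytometry as geometric mean on live-gated cells. EC50 was derived.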

`Cc1ccc(Nc2ncc(F)c(Nc3ccc(OCC(N)=O)cc3)n2)cc1S(N)(=O)=O` [Compound I-94, N4-(4-Aminocarbonylmethoxy)phenyl-N2-(3-aminosulfonyl-4-methyl)phenyl-5-fluoro-2,4-pyrimidinediamine]: the IC50 in test [1] is 0.345 µM; in test [2], 5.67 µM.

On to `Cc1cc(Nc2nc(Nc3ccc(C)c(S(N)(=O)=O)c3)ncc2F)ccc1OCC(N)=O` [Compound I-95, N4-(4-Aminocarbonylmethoxy-3-methyl)phenyl-N2-(3-aminosulfonyl-4-methyl)phenyl-5-fluoro-2,4-pyrimidinediamine], for which the IC50 is 0.118 µM in test [1] and 6.3 µM in test [2].

Consider `CCC(=O)NS(=O)(=O)c1cccc(Nc2ncc(F)c(Nc3ccc(OCc4nc(C)no4)cc3)n2)c1` [Compound I-273], for which the results for the IC50 in test [1] (sodium salt) and in test [2] (sodium Salt) were 0.478 µM and 5.1 µM, respectively.

Turning to `CNS(=O)(=O)c1cc(Nc2ncc(F)c(Nc3ccc(Cc4ccncc4)cc3)n2)ccc1C` [III-75, 5-Fluoro-N2-[3-(N-methylaminosulfony)-4-methylphenyl]-5-fluoro-N4-[4-(4-pyridinylmethyl)phenyl]-2,4-pyrimidinediamine], the IC50 in test [1] stood at 0.17 µM; in test [2], 1.77 µM.

In the case of `CNS(=O)(=O)c1cc(Nc2ncc(F)c(NCCc3ccc(-c4ccncc4)cc3)n2)ccc1C` [III-78, 5-Fluoro-N2-[3-N-(methyl)aminosulfonyl-4-methylphenyl]-N4-[4-(4-pyridinyl)phenethyl]-2,4-pyrimidinediamine], the IC50 was determined as 0.275 µM in test [1] and 22.9 µM in test [2].

`NS(=O)(=O)c1cccc(Nc2ncc(F)c(Nc3ccc(Cn4ccnc4)cc3)n2)c1` [III-81, N2-(3-Aminosulfonylphenyl)-5-fluoro-N4-[4-(1-imidazolylmethyl)phenyl]-2,4-pyrimidinediamine]: the IC50 was 0.18 µM in test [1] and 3.43 µM in test [2].

`Cc1ccc(Nc2ncc(F)c(Nc3ccc(Cn4ccnc4)cc3)n2)cc1S(N)(=O)=O` [III-82, N2-(3-Aminosulfonyl-4-methylphenyl)-5-fluoro-N4-[4-(1-imidazolylmethyl)phenyl]-2,4-pyrimidinediamine]: the IC50 in test [1] worked out at 0.127 µM; in test [2], 2.27 µM.

Regarding `CNS(=O)(=O)c1cc(Nc2ncc(F)c(Nc3ccc(Cn4ccnc4)cc3)n2)ccc1C` [III-83, 5-Fluoro-N2-[3-(N-methylaminosulfony)-4-methylphenyl]-5-fluoro-N4-[4-(1-imidazolylmethyl)phenyl]-2,4-pyrimidinediamine], the half-inhibitory concentration (IC50) stood at 0.0987 µM in test [1] and 1.36 µM in test [2].
